These results are taken from ChEMBL document CHEMBL4699540, “Discovery and structure activity relationships of 7-benzyl triazolopyridines as stable, selective, and reversible inhibitors of myeloperoxidase” (Bioorg Med Chem, 2020).

For series [1], the target named is T1, Myeloperoxidase (Homo sapiens, UniProt P05164).
T1 sequence (P05164 whole entry): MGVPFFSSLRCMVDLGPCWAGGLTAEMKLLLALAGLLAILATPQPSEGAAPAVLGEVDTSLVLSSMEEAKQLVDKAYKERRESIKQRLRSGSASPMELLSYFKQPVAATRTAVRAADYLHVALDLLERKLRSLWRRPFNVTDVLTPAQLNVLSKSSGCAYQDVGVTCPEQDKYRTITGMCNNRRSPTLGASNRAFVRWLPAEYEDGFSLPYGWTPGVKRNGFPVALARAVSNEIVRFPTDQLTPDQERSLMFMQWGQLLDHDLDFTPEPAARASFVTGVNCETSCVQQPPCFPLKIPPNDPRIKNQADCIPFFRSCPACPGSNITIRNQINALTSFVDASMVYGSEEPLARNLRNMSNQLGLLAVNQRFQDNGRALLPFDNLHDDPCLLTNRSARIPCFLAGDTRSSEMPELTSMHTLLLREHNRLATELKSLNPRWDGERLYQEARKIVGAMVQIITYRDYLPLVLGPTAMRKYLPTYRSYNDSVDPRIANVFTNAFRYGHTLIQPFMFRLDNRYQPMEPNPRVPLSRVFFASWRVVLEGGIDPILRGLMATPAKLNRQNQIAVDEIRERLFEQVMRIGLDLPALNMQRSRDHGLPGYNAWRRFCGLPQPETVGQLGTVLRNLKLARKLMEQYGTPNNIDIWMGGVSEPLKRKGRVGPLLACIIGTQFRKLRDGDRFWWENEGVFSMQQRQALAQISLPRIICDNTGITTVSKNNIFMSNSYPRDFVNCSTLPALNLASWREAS
In words: Inhibition of recombinant human MPO incubated for 10 mins by amplex red dye based assay.

The target of series [2] is T1, Myeloperoxidase. In words: Inhibition of recombinant human MPO incubated for 10 mins in presence of 240 mM NaCl and 10 uM H2O2 by aminophenyl fluorescein based assay.
Series [3] is described as follows: Permeability of compound at pH 7.4 by PAMPA assay. It counts as ADME. The note with it: read-out: permeability.
In the next series the target is Cytochrome P450 3A4 (Homo sapiens, UniProt P08684). In words: Inhibition of CYP3A4 (unknown origin). The format is ADME.
Series [4] is described as follows: Metabolic stability in human liver microsomes assessed as compound remaining. It counts as ADME, Microsome. On the technique in general: Microsomes from liver hold many membrane-bound enzymes, among them those of drug oxidation.
Series [5] can be described thus: Metabolic stability in mouse liver microsomes assessed as compound remaining. It counts as ADME, Microsome.
Series [6] can be described thus: Dissociation constant, pKa of the compound. The format is physicochemical.
A short description of series [7]: Stability of compound at pH 1 assessed as half life. The settings on record: buffer. The format is physicochemical.
The target of series [8] is T2, Methylated-DNA--protein-cysteine methyltransferase (Homo sapiens, UniProt P16455).
T2 sequence (P16455 whole entry): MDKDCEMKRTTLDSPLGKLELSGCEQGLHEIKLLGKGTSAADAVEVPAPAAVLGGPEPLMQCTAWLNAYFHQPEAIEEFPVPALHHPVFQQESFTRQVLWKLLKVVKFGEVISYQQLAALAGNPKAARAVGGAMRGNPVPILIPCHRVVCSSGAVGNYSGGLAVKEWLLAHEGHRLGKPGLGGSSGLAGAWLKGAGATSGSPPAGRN
Briefly: Inhibition of human MGMT using 06-benzylguanine as substrate incubated for 30 mins by LC/MS analysis. The settings on record: 0.5 h.

A further series has as its target T3, Thyroid peroxidase (Homo sapiens, UniProt P07202).
T3 sequence (P07202 whole entry): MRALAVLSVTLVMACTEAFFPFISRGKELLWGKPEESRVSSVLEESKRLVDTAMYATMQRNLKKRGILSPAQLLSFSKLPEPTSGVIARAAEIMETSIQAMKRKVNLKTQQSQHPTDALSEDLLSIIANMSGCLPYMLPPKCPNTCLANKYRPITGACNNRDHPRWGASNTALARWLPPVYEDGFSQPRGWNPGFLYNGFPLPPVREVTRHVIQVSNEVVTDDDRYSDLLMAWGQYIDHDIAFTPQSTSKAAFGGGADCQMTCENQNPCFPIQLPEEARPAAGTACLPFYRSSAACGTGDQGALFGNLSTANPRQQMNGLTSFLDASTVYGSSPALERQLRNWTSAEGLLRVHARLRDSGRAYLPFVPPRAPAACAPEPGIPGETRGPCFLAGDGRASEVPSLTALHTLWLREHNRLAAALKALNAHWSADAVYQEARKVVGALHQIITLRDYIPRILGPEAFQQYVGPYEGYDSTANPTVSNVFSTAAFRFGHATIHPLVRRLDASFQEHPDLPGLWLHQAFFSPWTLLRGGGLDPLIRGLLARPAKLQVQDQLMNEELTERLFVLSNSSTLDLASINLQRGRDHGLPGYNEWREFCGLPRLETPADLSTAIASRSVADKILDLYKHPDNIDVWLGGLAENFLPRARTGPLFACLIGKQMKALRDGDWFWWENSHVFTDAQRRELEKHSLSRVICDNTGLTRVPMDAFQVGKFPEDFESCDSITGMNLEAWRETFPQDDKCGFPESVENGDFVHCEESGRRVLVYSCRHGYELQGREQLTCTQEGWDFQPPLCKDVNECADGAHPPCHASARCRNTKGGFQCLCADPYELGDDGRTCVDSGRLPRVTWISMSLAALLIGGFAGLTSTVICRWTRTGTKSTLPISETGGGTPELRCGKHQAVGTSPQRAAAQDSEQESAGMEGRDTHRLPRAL
Briefly: Inhibition of TPO (unknown origin) using 3-iodo tyrosine as substrate incubated for 10 mins.

The structures appear in SMILES notation.

Cytochrome P450 3A4, sequence (P08684 whole entry): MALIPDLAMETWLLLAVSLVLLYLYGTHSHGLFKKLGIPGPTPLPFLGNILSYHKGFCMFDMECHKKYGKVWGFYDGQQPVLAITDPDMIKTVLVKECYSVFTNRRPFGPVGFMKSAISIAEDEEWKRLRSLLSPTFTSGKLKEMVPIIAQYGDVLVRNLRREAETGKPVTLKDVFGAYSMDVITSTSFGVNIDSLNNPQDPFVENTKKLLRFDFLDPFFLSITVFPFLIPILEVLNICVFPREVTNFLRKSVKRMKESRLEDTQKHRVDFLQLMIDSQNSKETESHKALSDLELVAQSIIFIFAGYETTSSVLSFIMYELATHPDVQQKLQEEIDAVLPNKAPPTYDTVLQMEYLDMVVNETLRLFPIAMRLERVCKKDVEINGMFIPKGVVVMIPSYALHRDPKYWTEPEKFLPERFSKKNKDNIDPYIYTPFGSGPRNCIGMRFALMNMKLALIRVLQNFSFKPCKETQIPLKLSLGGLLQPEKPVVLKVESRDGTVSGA

One may read the IC50 as the concentration needed to halve the response being measured. With `Nc1cc(Cc2ccc3ccccc3c2)c2nn[nH]c2n1`, the values for the IC50 on Myeloperoxidase [1] and on Myeloperoxidase [2] were 0.188 µM and 0.057 µM, respectively.
In the case of `Nc1cc([C@H](CCCc2ccccc2)c2ccccc2)c2nn[nH]c2n1`, in series [3], the Papp stood at 125 ×10⁻⁶ cm/s. In addition, the IC50 on Cytochrome P450 3A4 amounted to 1.8 µM. Also, the results for the Stabilty in series [4] and in [5] were 31% and 1%, respectively.
Consider `Nc1cc([C@H](CCN(CCF)C23CCC(c4ccccc4)(CC2)CC3)c2ccccc2)c2nn[nH]c2n1`, for which the Papp in series [3] stood at 21.7 ×10⁻⁶ cm/s.
The pKa is the negative logarithm of the acid dissociation constant. Read a low pKa as a group that gives up its proton readily. Usually half-life stands for how long it takes for the measured level to halve. For `Nc1nc(Cc2ccccc2)c2nn[nH]c2n1`, the pKa in series [6] was found to be 6.3. The IC50 at Myeloperoxidase [1] was found to be 0.428 µM; on Myeloperoxidase [2] it was 0.11 µM. Moreover, in series [7], the half-life is 16 h. In [8], the “inhibition (INH)” value is listed as “Not Active”.
Regarding `Nc1cc([C@H](CCN[C@@H]2CC[C@@H](c3ccccc3)OC2)c2ccccc2)c2nn[nH]c2n1`, the Papp in series [3] turned out to be 3.7 ×10⁻⁶ cm/s.
As to `Nc1cc(Cc2cccc(C(F)(F)F)c2)c2nn[nH]c2n1`, the IC50 on Myeloperoxidase [1] was 1.43 µM; on Myeloperoxidase [2], 0.683 µM.
Take `Nc1cc([C@H](CCCN2CCC(c3ccccc3)CC2)c2ccccc2)c2nn[nH]c2n1`: in [3], the Papp came out at 1.3 ×10⁻⁶ cm/s.
`Nc1cc([C@H](CCN[C@H]2C[C@@H](c3ccccc3)c3ccccc32)c2ccccc2)c2nn[nH]c2n1`: the Stabilty in [4] is listed as 35%; in series [5] it was 28%.
Take `Nc1cc(Cc2ccc(Cl)cc2)c2nn[nH]c2n1`: the half-maximal inhibitory concentration (IC50) is 9.3 µM at Myeloperoxidase [1] and 1.7 µM at Myeloperoxidase [2].
`Nc1nc(NCc2ccccc2)c2nn[nH]c2n1` had a pKa in series [6] of 7.8. The IC50 at Myeloperoxidase [1] and on Myeloperoxidase [2] was greater than 40 µM throughout.
With `Nc1cc([C@H](CCN[C@@H]2CC[C@@H](c3ccccc3)C2)c2ccccc2)c2nn[nH]c2n1`, the Papp in series [3] turned out to be 2.4 ×10⁻⁶ cm/s. The values for the Stabilty in series [4] and in series [5] were 73% and 45%, respectively.
Take `COC(=O)c1cccc(Cc2cc(N)nc3[nH]nnc23)c1`: the results for the IC50 on Myeloperoxidase [1] and on Myeloperoxidase [2] were 0.017 µM and 0.029 µM, respectively.
For `Nc1cc([C@H](CCOCc2ccccc2)c2ccccc2)c2nn[nH]c2n1`, the IC50 worked out at 6.3 µM on Thyroid peroxidase and 2.6 µM against Cytochrome P450 3A4. In series [3], the Papp came to 73 ×10⁻⁶ cm/s. For the same compound, the Stabilty turned out to be 2% in series [4] and 1% in [5].
As for `CN(CC[C@H](c1ccccc1)c1cc(N)nc2[nH]nnc12)C12CCC(c3ccccc3)(CC1)CC2`, the Papp in series [3] is 0.1 ×10⁻⁶ cm/s.
`Nc1cc(Cc2cccc(-c3ccccc3)c2)c2nn[nH]c2n1`: the results for the concentration for half-maximal inhibition (IC50) on Myeloperoxidase [1] and at Myeloperoxidase [2] were 0.077 µM and 0.127 µM, respectively.
On to `Nc1cc([C@H](CCNC23CCC(c4ccccc4)(CC2)CC3)c2ccccc2)c2nn[nH]c2n1`, for which, in series [3], the Papp worked out at 1.7 ×10⁻⁶ cm/s. For the same compound, the Stabilty in [4] came to 91%; in series [5] it was 85%.
Regarding `Nc1cc(Cc2cccc(Cl)c2)c2nn[nH]c2n1`, the concentration for half-maximal inhibition (IC50) was 0.032 µM at Myeloperoxidase [1] and 0.016 µM on Myeloperoxidase [2].
On to `Nc1cc([C@H](CCN[C@@H]2CC[C@@H](c3ccccc3)c3ccccc32)c2ccccc2)c2nn[nH]c2n1`, for which the values for the Stabilty in series [4] and in series [5] were 9% and 10%, respectively.
For `Nc1cc([C@H](CCNCc2ccccc2)c2ccccc2)c2nn[nH]c2n1`, the half-inhibitory concentration (IC50) against Thyroid peroxidase was greater than 50 µM; against Cytochrome P450 3A4 it was 12 µM. In addition, the Papp in series [3] came out at 4.3 ×10⁻⁶ cm/s. The Stabilty in [4] was determined as 88%; in series [5], 85%.
`Nc1cc([C@H](CCNCc2ccccc2C(F)(F)F)c2ccccc2)c2nn[nH]c2n1`: in series [3], the Papp is 23.7 ×10⁻⁶ cm/s. Besides, the Stabilty is recorded as 2% in [4] and 3% in [5].
As to `Nc1cc([C@H](Cc2ccccc2)c2ccccc2)c2nn[nH]c2n1`, the Papp in series [3] came to 64.8 ×10⁻⁶ cm/s. Moreover, 3.4 µM corresponded to half-maximal inhibition at Cytochrome P450 3A4 (IC50). For the same compound, the Stabilty in series [4] is reported as 84%; in [5], 53%.
With `CN(Cc1ccccc1)c1nc(N)nc2[nH]nnc12`, the IC50 on Myeloperoxidase [1] and on Myeloperoxidase [2] was greater than 40 µM throughout.
With `Nc1cc(C(CCNC23CCC(c4ccccc4)(CC2)OC3)c2ccccc2)c2nn[nH]c2n1` (centres undefined), the Papp in series [3] came to 10.4 ×10⁻⁶ cm/s.
`Nc1cc(Cc2ccccc2F)c2nn[nH]c2n1`: the IC50 on Myeloperoxidase [1] was 0.046 µM; on Myeloperoxidase [2], 0.032 µM.
Take `Nc1cc([C@H](CCN[C@H]2CCc3ccccc32)c2ccccc2)c2nn[nH]c2n1`: the Papp in [3] stood at 6.5 ×10⁻⁶ cm/s. Further, the Stabilty in series [4] worked out at 65%; in series [5], 51%.
For the compound `Nc1cc(OCc2ccccc2)c2nn[nH]c2n1`, in series [7], the half-life was greater than 100 h. The “inhibition (INH)” value in series [8] is listed as “Active”.
`Nc1nc(CCc2ccccc2)c2nn[nH]c2n1`: the values for the IC50 on Myeloperoxidase [1] and at Myeloperoxidase [2] were 9.84 µM and 7.45 µM, respectively.
As to `Nc1cc([C@H](CCN[C@H]2CC[C@H](c3ccccc3)CC2)c2ccccc2)c2nn[nH]c2n1`, the Stabilty in series [4] is 80%; in [5] it was 79%.
